Measurements reported in patent publication US5567692A, “9-[(substituted glycyl) amido)]-6-demethyl-6-deoxytetracyclines” (priority 1995, dated 1996).
Like-named read-outs stand apart in the source and are kept apart here.

How the values were obtained:
[1] = test system: S. aureus UBMS 90-3; test: MIC, agar dilution; type: cell-based; conditions: Staphylococcus aureus, UBMS903, 18 h, S. aureus UBMS 90-3
[2] = test system: S. marcescens FPOR 8733; test: MIC, agar dilution; type: cell-based; conditions: Serratia marcescens, FPOR8733, 18 h, read-out: MIC
[3] = test system: E. coli J3272 Tet C; test: microbe, parasite or virus in culture; type: cell-based
[4] = test system: S. aureus UBMS 88-7 Tet K; test: microbe, parasite or virus in culture; type: cell-based; conditions: Staphylococcus aureus, UBMS887TETK, 18 h
[5] = test system: S. aureus ATCC 29213; test: MIC, agar dilution; type: cell-based; conditions: Staphylococcus aureus, ATCC29213, 18 h, S. aureus ATCC 29213
[6] = test system: E. coli #311 (MP); test: MIC, agar dilution; type: cell-based; conditions: E. coli #311 (MP)
[7] = test system: E. coli J3272 Tet sens; test: MIC, agar dilution; type: cell-based; conditions: Escherichia coli, J3272TETSENS, 18 h
[8] = test system: E. coli UBMS 89-2 Tet sens.; test: MIC, agar dilution; type: cell-based; conditions: Escherichia coli, 18 h
[9] = test system: E. coli UBMS 90-4 Tet M; test: microbe, parasite or virus in culture; type: cell-based; conditions: Escherichia coli, UBMS904TETM, 18 h
[10] = test system: X. maltophilia NEMC 87210; test: MIC, agar dilution; type: cell-based; conditions: Stenotrophomonas maltophilia, NEMC87210, 18 h, X. maltophilia NEMC 87210; read-out: MIC
[11] = test system: E. coli UBMS 88-1 Tet B; test: microbe, parasite or virus in culture; type: cell-based; conditions: Escherichia coli, UBMS881TETB, 18 h
[12] = test system: Staphylococcus aureus strain Smith (tetracycline sensitive); test: Acute lethal infection in mice, S. aureus Smith; type: in vivo; conditions: for ED50: Staphylococcus aureus, 168 h, mice, S. aureus Smith (Sens), 7 day survival, read-out: ED50
[13] = test system: E. coli MC 4100 TNIOC Tet B; test: microbe, parasite or virus in culture; type: cell-based; conditions: Escherichia coli, 18 h
[14] = test system: S. aureus ROSE (MP); test: MIC, agar dilution; type: cell-based; conditions: Staphylococcus aureus, 18 h
[15] = test system: S. aureus IVES 2943; test: MIC, agar dilution; type: cell-based; conditions: Staphylococcus aureus, IVES2943, 18 h, S. aureus IVES 2943; read-out: MIC
[16] = test system: E. coli ATCC 25922; test: MIC, agar dilution; type: cell-based; conditions: Escherichia coli, ATCC25922, 18 h
[17] = test system: E. coli PRP1 Tet A; test: microbe, parasite or virus in culture; type: cell-based
[18] = test system: E. coli J2175; test: MIC, agar dilution; type: cell-based; conditions: Escherichia coli, 18 h, read-out: MIC
[19] = test system: E. coli UBMS 90-5; test: microbe, parasite or virus in culture; type: cell-based; conditions: E. coli UBMS 90-5
[20] = test system: Ps. aeruginosa ATCC 27853; test: MIC, agar dilution; type: cell-based; conditions: Ps. aeruginosa ATCC 27853
[21] = test system: E. coli UBMS 89-1 Tet M; test: microbe, parasite or virus in culture; type: cell-based; conditions: Escherichia coli, UBMS891TETM, 18 h
[22] = test system: S. aureus IVES 1983; test: MIC, agar dilution; type: cell-based; conditions: Staphylococcus aureus, IVES1983, 18 h
[23] = test system: S. hemolyticus AVHAH 88-3; test: MIC, agar dilution; type: cell-based; conditions: Streptococcus pyogenes, AVHAH883, 18 h, S. hemolyticus AVHAH 88-3; read-out: MIC
[24] = test system: S. aureus UBMS 90-1 Tet M; test: microbe, parasite or virus in culture; type: cell-based; conditions: Staphylococcus aureus, UBMS901TETM, 18 h
[25] = test system: S. aureus NEMC 8769; test: MIC, agar dilution; type: cell-based; conditions: Staphylococcus aureus, NEMC8769, 18 h

Question: Which results are given for `CN(C)CC(=O)Nc1ccc2c(c1O)C(=O)C1=C(O)[C@]3(O)C(=O)C(C(N)=O)=C(O)[C@@H](N(C)C)C3CC1C2` (stereo partly drawn) [AA, [4S-(4alpha,12aalpha)]-4-(Dimethylamino)-9-[[(dimethylamino)acetyl]amino]-1,4,4a,5,5a,6,11,12a-octahydro-3,10,12,12a-tetrahydroxy-1,11-dioxo-2-naphthacenecarboxamide disulfate]?
Answer: MIC [1]: 0.06 mg/L; MIC [2]: 4 mg/L; MIC [3]: 1 mg/L; MIC [4]: 1 mg/L; MIC [5]: < 0.015 mg/L; MIC [6]: 0.50 mg/L; MIC [7]: 0.25 mg/L; MIC [8]: 0.25 mg/L; MIC [9]: 0.25 mg/L; MIC [10]: 2 mg/L; MIC [11]: 0.25 mg/L; ED50 ([12]; iv, Intraveneous): 0.5 to 1 mg/kg; ED50 ([12]; po, Oral): > 16 mg/kg; in vivo activity (in words) ([12]; tested intravenously against the minocycline sensitive organism S. aureus Smith): very good in vivo activity; MIC [13]: 0.25 mg/L; MIC [14]: 4 mg/L; MIC [15]: 1 mg/L; MIC [16]: 0.25 mg/L; MIC [17]: 2 mg/L; MIC [18]: 0.25 mg/L; MIC [19]: 0.25 mg/L; MIC [20]: 16 mg/L; MIC [21]: 0.25 mg/L; MIC [22]: 2 mg/L; MIC [23]: 0.5 mg/L; MIC [24]: 0.25 mg/L; MIC [25]: 0.03 mg/L
